This is an account of results in patent US6977265B2, “Piperidine CCR-3 receptor antagonists” (Roche Palo Alto LLC, priority 2001, dated 2005).

Broadly, the pIC50 is −log10 of the IC50, conventionally taken in molar units. A lower pIC50 goes with a high IC50. Usually melting point stands for the temperature of the solid-liquid transition.

pIC50: −log10 of the molar value. Counter-ions that a name gives are not always drawn.

For one data set, the target named is T1, CCR-3 receptor (Homo sapiens, UniProt P51677).
T1 construct: expressed in transfected cells; host or cells: L1.2 (murine pre-B lymphoma line) stably transfected with CCR-3
T1 sequence (P51677 1-355): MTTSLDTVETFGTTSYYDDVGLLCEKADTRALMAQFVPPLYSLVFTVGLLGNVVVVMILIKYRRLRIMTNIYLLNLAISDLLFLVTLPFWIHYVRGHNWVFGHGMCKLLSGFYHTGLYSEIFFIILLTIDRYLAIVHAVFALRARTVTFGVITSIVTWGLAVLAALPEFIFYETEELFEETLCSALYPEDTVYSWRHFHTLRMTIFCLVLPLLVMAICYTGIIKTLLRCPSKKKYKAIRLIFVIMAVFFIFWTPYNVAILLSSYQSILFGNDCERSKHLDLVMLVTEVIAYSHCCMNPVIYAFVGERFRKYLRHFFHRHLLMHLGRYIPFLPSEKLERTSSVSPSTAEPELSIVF
Put plainly: CCR-3 receptor binding assay, in vitro: inhibition of 125I eotaxin binding to CCR-3 L1.2 transfectant cells. The settings on record: inhibition of binding of 125I-eotaxin to CCR-3 L1.2 transfected cells, 1 hour at room temperature. Here is the method: The CCR-3 antagonistic activity of the compounds of the invention was determined by their ability to inhibit the binding of ^125I eotaxin to CCR-3 L1.2 transfectant cells (see Ponath, P. D. et al., J. Exp. Med., Vol. 183, 2437-2448, (1996)).
The assay was performed in Costar 96-well polypropylene round bottom plates. Test compounds were dissolved in DMSO and then diluted with binding buffer (50 mM HEPES, 1 mM CaCl2, 5 mM MgCl2, 0.5% bovine serum albumin (BSA), 0.02% sodium azide, pH 7.24) such that the final DMSO concentration was 2%. 25 μl of the test solution or only buffer with DMSO (control samples) was added to each well, followed by the addition of 25 μl of ^125I-eotaxin ([…]) (NEX314, New England Nuclear, Boston, Mass.) and 1.5×10^5 of the CCR-3 L1.2 transfected cells in 25 μl binding buffer. The final reaction volume was 75 μl.
After incubating the reaction mixture for 1 hour at room temperature, the reaction was terminated by filtering the reaction mixture through polyethylenimine treated Packard Unifilter GF/C filter plate (Packard, Chicago, Ill.). The filters were washed four times with ice cold wash buffer containing 10 mm HEPES and 0.5M sodium chloride (pH 7.2) and dried at 65° C. for approximately 10 minutes. 25 μl/well of Microscint-20® scintillation fluid (Packard) was added and the radioactivity retained on the filters was determined by using the Packard TopCount®.
With `CC(=O)Nc1cccc(NC(=O)N[C@@H]2CCC[C@H]2N2CCC(Cc3ccc(Cl)cc3)CC2)c1` [Compound 2], the negative logarithm of the IC50 (pIC50) is 7.73. On the same count and under the same terms, the figure for `O=C(Nc1cccc(Cl)c1Cl)N[C@@H]1CCC[C@H]1N1CCC(Cc2ccc(Cl)cc2)CC1` [Compound 3] is 5.94. On to `COc1ccc(NC(=S)N[C@@H]2CCC[C@H]2N2CCC(Cc3ccc(Cl)cc3)CC2)cc1` [Compound 10], for which the pIC50 was 6.29. For `O=C(N[C@@H]1CCC[C@H]1N1CCC(Cc2ccc(Cl)cc2)CC1)c1cc2cc(Cl)ccc2[nH]1` [Compound 5], the negative logarithm of the IC50 (pIC50) is 5.57. Regarding `CC(=O)c1cccc(C(=O)N[C@@H]2CCC[C@H]2N2CCC(Cc3ccc(Cl)cc3)CC2)c1` [Compound 6], the pIC50 was 5.73. Turning to `COc1cc(CC(=O)N[C@@H]2CCC[C@H]2N2CCC(Cc3ccc(Cl)cc3)CC2)cc(OC)c1OC` [Compound 7], the pIC50 was 5.83. On the same count and under the same terms, the figure for `O=C(NCCc1cccs1)N[C@@H]1CCC[C@H]1N1CCC(Cc2ccc(Cl)cc2)CC1` [Compound 4] is 6.06. Same read-out and setting: the same measure for `O=C(Nc1ccc2ccccc2n1)N[C@@H]1CCC[C@H]1N1CCC(Cc2ccc(Cl)cc2)CC1` (racemic) [Compound 1, (±)-trans-1-{2-[4-(4-chlorobenzyl)piperidin-1-yl]cyclopentyl}-3-quinolin-2-yl-urea]: 6.25; for `O=[N+]([O-])c1ccccc1S(=O)(=O)N[C@@H]1CCC[C@H]1N1CCC(Cc2ccc(Cl)cc2)CC1` [Compound 8]: 5.22. `O=C(N[C@@H]1CCC[C@H]1N1CCC(Cc2ccc(Cl)cc2)CC1)OCc1ccc([N+](=O)[O-])cc1` [Compound 9] gave a pIC50 of 5.29. This pIC50 and that of the compound before are within 0.2 log units of each other.

Tested on in the next data set: not given
Experiment: not given
Settings: not given
With `COC[C@@H]1C[C@@H](N2CCC(Cc3ccc(Cl)cc3)CC2)[C@H](NC(=O)Nc2cc(OC)c(OC)c(OC)c2)C1` (racemic) (as salt: hydrochloride), the melting point was 109 to 112 °C. For the compound `COc1cc(NC(=O)N[C@@H]2CCC[C@@H]2N2CCC(Cc3ccc(Cl)cc3)CC2)cc(OC)c1OC` (racemic) (as salt: hydrochloride), the melting point fell in the range of 117.5 to 122.5 °C.

`COc1cc(CCNC(=O)N[C@@H]2CCC[C@H]2N2CCC(Cc3ccc(Cl)cc3)CC2)cc(OC)c1OC` (racemic) (as salt: hydrochloride) came in with a melting point of 90.3 to 95 °C.

As for `COc1cc(NC(=O)N[C@@H]2CN(C(=O)N(C)C)C[C@H]2N2CCC(Cc3ccc(Cl)cc3)CC2)cc(OC)c1OC` (racemic) (as salt: hydrochloride), the melting point fell in the range of 142 to 144.5 °C. As to `COc1cc(NC(=O)N[C@@H]2CN(C(C)=O)C[C@H]2N2CCC(Cc3ccc(Cl)cc3)CC2)cc(OC)c1OC` (racemic) (as salt: hydrochloride), the melting point was 155 to 161 °C. For the compound `COc1cc(NC(=O)N[C@@H]2CN(S(C)(=O)=O)C[C@H]2N2CCC(Cc3ccc(Cl)cc3)CC2)cc(OC)c1OC` (racemic) (as salt: hydrochloride), the melting point lay within 148 to 158 °C.

On to `COc1cc(NC(=O)N[C@@H]2CCC[C@H]2N2CCC(Cc3ccc(Cl)cc3)CC2)cc(OC)c1OC` (racemic) (as salt: hydrochloride), for which the melting point was in the range of 136.1 to 138 °C. Compound `COc1cc(NC(=O)N[C@@H]2CN(S(N)(=O)=O)C[C@H]2N2CCC(Cc3ccc(Cl)cc3)CC2)cc(OC)c1OC` (racemic) (as salt: hydrochloride) registered a melting point of 155.7 to 160 °C. On the same count and under the same terms, the figure for `COc1cc(NC(=O)N[C@@H]2COC[C@H]2N2CCC(Cc3ccc(Cl)cc3)CC2)cc(OC)c1OC` (racemic) (as salt: hydrochloride) is 229.2 to 230.9 °C; for `COc1cc(NC(=O)N[C@@H]2C[C@H](CO)C[C@H]2N2CCC(Cc3ccc(Cl)cc3)CC2)cc(OC)c1OC` (racemic) (as salt: hydrochloride) it is 138 to 143 °C; for `COc1cc(NC(=O)N[C@@H]2CNC[C@H]2N2CCC(Cc3ccc(Cl)cc3)CC2)cc(OC)c1OC` (racemic) (as salt: hydrochloride) [Example 9, (±)-trans-1-{4-[4-(4-chlorobenzyl)piperidin-1-yl]-pyrrolidin-3-yl}-3-(3,4,5-trimethoxyphenyl)urea dihydrochloride] it is 157 to 170 °C. The compound `COc1cc(NC(=O)N[C@@H]2C[C@H](OC)C[C@H]2N2CCC(Cc3ccc(Cl)cc3)CC2)cc(OC)c1OC` (racemic) (as salt: hydrochloride) showed a melting point of 112.5 to 119.5 °C.

In turn, `COc1cc(NC(=O)N[C@@H]2CCCC[C@H]2N2CCC(Cc3ccc(Cl)cc3)CC2)cc(OC)c1OC` (racemic) [Example 1, (±)-trans-1-{2-[4-(4-chlorobenzyl)piperidin-1-yl]-cyclohexyl}-3-(3,4,5-trimethoxyphenyl)urea] yielded a melting point of 196.9 to 200 °C. In turn, `COc1cc(NC(=O)N[C@@H]2CC[C@H]2N2CCC(Cc3ccc(Cl)cc3)CC2)cc(OC)c1OC` (racemic) (as salt: hydrochloride) registered a melting point of 127.4 to 128.2 °C.

The compound `COc1cc(NC(=O)N[C@@H]2C[C@H](O)C[C@H]2N2CCC(Cc3ccc(Cl)cc3)CC2)cc(OC)c1OC` (racemic) (as salt: hydrochloride) gave a melting point of 137 to 143 °C. On the same count and under the same terms, the figure for `CS(=O)(=O)c1cccc(NC(=O)N[C@@H]2CCCC[C@H]2N2CCC(Cc3ccc(Cl)cc3)CC2)c1` (racemic) (as salt: hydrochloride) is 150.2 to 151.6 °C; for `COc1cc(NC(=O)N[C@@H]2CN(S(=O)(=O)N(C)C)C[C@H]2N2CCC(Cc3ccc(Cl)cc3)CC2)cc(OC)c1OC` (racemic) (as salt: hydrochloride) it is 141 to 143 °C; for `COc1cc(NC(=O)N[C@@H]2CN(CC(N)=O)C[C@H]2N2CCC(Cc3ccc(Cl)cc3)CC2)cc(OC)c1OC` (racemic) (as salt: hydrochloride) it is 160 to 165 °C.

The compound `COc1cc(NC(=O)N[C@@H]2CC[C@@H]2N2CCC(Cc3ccc(Cl)cc3)CC2)cc(OC)c1OC` (racemic) (as salt: hydrochloride) gave a melting point of 123.7 to 127.9 °C.

As for `CS(=O)(=O)c1ccc(C(=O)N[C@@H]2CCC[C@@H]2N2CCC(Cc3ccc(Cl)cc3)CC2)cc1` (racemic) (as salt: hydrochloride) [Example 11, (±)-cis-N-{2-[4-(4-chlorobenzyl)piperidin-1-yl]-cyclopentyl}-4-methanesulfonyl-benzamide hydrochloride], the melting point fell in the range of 125.3 to 131.9 °C. In turn, `COc1cc(NC(=O)N[C@@H]2CN(C(N)=O)C[C@H]2N2CCC(Cc3ccc(Cl)cc3)CC2)cc(OC)c1OC` (racemic) (as salt: hydrochloride) yielded a melting point of 158 to 162 °C.

As to `COc1cc(NC(=O)N[C@@H]2CCC[C@H]2N2CCC(Cc3ccc(Cl)cc3)CC2)cc2ccccc12` (racemic) [Example 22, (±)-trans-1-{2-[4-(4-chlorobenzyl)piperidin-1-yl]-cyclopentyl}-3-(4-methoxy-naphthalen-2-yl)urea], the melting point lay within 175 to 190 °C.

Regarding `CS(=O)(=O)c1ccc(C(=O)N[C@@H]2CCCC[C@@H]2N2CCC(Cc3ccc(Cl)cc3)CC2)cc1` (racemic) (as salt: hydrochloride) [Example 14, (±)-cis-N-{2-[4-(4-chlorobenzyl)piperidin-1-yl]-cyclohexyl}-4-methanesulfonyl-benzamide hydrochloride], the melting point is 123.7 to 149.4 °C. On the same count and under the same terms, the same measure for `CS(=O)(=O)c1ccc(C(=O)N[C@@H]2CC[C@H]2N2CCC(Cc3ccc(Cl)cc3)CC2)cc1` (racemic) (as salt: hydrochloride): 173.2 to 184.1 °C. For `COc1cc(NC(=O)N[C@@H]2C[C@H](O)C[C@H]2N2CCC(Cc3ccc(Cl)cc3)CC2)cc(OC)c1OC` (racemic) [Example 6, (±)-1-{(1R,2R,4S)-2-[4-(4-chlorobenzyl)piperidin-1-yl]-4-hydroxy-cyclopentyl}-3-(3,4,5-trimethoxyphenyl)urea], the melting point is 98.7 to 102 °C.

The compound `COc1cc(NC(=O)N[C@@H]2CN(CCS(C)(=O)=O)C[C@H]2N2CCC(Cc3ccc(Cl)cc3)CC2)cc(OC)c1OC` (racemic) (as salt: hydrochloride) displayed a melting point of 210.2 to 211.8 °C. On the same count and under the same terms, the same measure for `COc1cc(NC(=O)N[C@@H]2CCCC[C@@H]2N2CCC(Cc3ccc(Cl)cc3)CC2)cc(OC)c1OC` (racemic) (as salt: hydrochloride): 120.1 to 137.3 °C.
